From US10189809B2, “SGC stimulators” (Ironwood Pharmaceuticals, Inc., priority 2010, dated 2019)
Where two headings read alike, the source gives them in different places.

Tests used:
[1] = target: soluble guanylate cyclase (sGC) (Homo sapiens (Human), UniProt Q02108+Q02153); experiment: sGC-HEK-cGMP assay run with SNP incubation (HEK WC assay); type: cell-based
Outline: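 HEK293 cells with endogenous sGC were pretreated with 0.5 mM IBMX for 15 min at 37 °C, then exposed to test compound plus sodium nitroprusside for 10 min at 37 °C.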

[2] = target: T1, Human soluble guanylate cyclase enzyme (hsGC) (Homo sapiens (Human), UniProt Q02108+Q02153); experiment: Purified human sGC enzyme activity assay; type: biochemical; conditions: for sGC Enzyme (fold increase at 30 μM) / sGC Enzyme (specific activity at 30 μM) / sGC Enzyme (fold increase at 30 μM without SNP): 30 μM compound; for sGC Enzyme (fold increase at 30 μM): without the addition of SNP; for sGC Enzyme (specific activity at 10 μM) / sGC Enzyme (fold increase at 10 μM without SNP): 10 μM compound
Outline: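 Purified human sGC (5 ng) incubated 30 min at 37° C with compound at 10 or 30 μM final in pH 8.0 Tris with 300 μM GTP, 2 mM MgCl2, 2 mM DTT and 1 mM IBMX, then stopped with cold methanol. cGMP quantified against a standard curve. Specific activity (nmol cGMP/mg sGC/min) expressed as fold-change over DMSO control.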

[3] = target: T1, Human soluble guanylate cyclase enzyme (hsGC); experiment: Purified human sGC enzyme synergy assay in the presence of 1 μM sodium nitroprusside (SNP); type: biochemical; conditions: for sGC Enzyme (fold increase at 30 μM with SNP): 30 μM compound; for sGC Enzyme (fold increase at 10 μM with SNP): 10 μM compound
Protocol: Human soluble guanylate cyclase enzyme (hsGC) obtained from Enzo Inc. (P/N: ALX-201-177) was used to evaluate the activity of test compounds. The assay reactions contained 0.1 M Tris (pH 8.0), 0.5 mg/mL BSA (pH 8.0), 2 mM DTT, 2 mM MgCl2, 300 μM GTP, 1 mM 3-isobutyl-1-methylxanthine (IBMX) and 5 ng human soluble guanylate cyclase enzyme. Test compounds in DMSO were then added (2 μL, 10 or 30 μM final concentration) and incubated (200 μL, 96-well plate format) at 37° C. for 30 minutes. The controls were carried out using 2 μL DMSO. After the 30 minute incubation, the reaction was stopped with the addition of 200 μL of cold methanol. The plate was then centrifuged at 3,200 rpm for 10 minutes at room temperature. Supernatants (200 μL) were collected and transferred to a new 96 well plate for analysis.
An 8 point cGMP (Sigma-Aldrich P/N: G6129) standard curve was prepared in assay buffer ranging from 0.156-20 μM. Samples for the cGMP standard curve were then diluted with an equal volume of methanol resulting in final cGMP concentrations of 0.078-10 μM.
The cGMP standard curve was generated using GraphPad Prism Software.
Calculations: Specific Activity was determined by the amount of cGMP formed (nmoles) per mg of sGC per min. Enzyme “fold-change” was calculated by dividing Specific Activity for test compounds by Specific Activity of DMSO controls.
Enzyme assays were performed as described above, but was done in the presence of 1 μM sodium nitroprusside (SNP).

[4] = read-out: HEK WC Assay (% Emax at 10 μM/with 10 uM SNP)
[5] = read-out: HEK WC Assay (% Emax at 30 μM/with 10 uM SNP)
[6] = read-out: HEK WC Assay (% Emax at 10 uM/with 10 uM SNP)
[7] = read-out: HEK WC Assay (% Emax at 30 uM/with 10 uM SNP)

T1 sequence (Q02153 whole entry): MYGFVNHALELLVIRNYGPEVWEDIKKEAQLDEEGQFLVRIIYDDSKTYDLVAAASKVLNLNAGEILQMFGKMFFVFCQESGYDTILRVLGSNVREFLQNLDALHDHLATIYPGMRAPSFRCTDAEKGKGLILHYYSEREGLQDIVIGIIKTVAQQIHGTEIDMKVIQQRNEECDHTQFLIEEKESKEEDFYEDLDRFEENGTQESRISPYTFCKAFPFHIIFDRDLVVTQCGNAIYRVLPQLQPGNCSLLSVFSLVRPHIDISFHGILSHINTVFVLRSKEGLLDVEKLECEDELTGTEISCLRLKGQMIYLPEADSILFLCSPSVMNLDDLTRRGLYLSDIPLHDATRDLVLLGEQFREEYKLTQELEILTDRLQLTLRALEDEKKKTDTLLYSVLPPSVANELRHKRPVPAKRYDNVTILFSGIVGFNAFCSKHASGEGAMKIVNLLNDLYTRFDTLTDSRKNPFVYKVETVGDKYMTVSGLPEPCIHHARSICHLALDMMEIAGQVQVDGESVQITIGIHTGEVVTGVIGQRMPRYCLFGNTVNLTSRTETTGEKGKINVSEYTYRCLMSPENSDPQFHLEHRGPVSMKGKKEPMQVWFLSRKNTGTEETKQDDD
T1 sequence (Q02108 whole entry): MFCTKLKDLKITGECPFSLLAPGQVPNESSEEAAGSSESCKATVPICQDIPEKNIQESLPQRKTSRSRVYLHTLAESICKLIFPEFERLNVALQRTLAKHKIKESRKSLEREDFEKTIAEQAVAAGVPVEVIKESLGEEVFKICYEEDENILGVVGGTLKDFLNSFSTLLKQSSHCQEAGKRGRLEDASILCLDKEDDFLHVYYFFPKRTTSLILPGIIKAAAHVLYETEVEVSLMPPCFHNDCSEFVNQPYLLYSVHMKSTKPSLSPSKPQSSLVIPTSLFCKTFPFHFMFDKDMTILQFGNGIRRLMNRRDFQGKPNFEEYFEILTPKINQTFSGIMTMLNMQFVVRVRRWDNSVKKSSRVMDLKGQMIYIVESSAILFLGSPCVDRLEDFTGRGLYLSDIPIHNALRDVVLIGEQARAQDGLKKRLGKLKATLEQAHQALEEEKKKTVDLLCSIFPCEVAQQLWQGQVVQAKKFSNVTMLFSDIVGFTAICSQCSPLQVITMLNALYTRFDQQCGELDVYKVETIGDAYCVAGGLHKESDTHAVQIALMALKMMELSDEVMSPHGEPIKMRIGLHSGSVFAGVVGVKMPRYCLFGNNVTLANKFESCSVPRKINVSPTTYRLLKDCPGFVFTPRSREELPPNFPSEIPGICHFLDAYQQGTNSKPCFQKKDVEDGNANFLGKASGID
soluble guanylate cyclase (sGC), sequence (Q02153 whole entry): as the sequence (Q02153 whole entry) above
soluble guanylate cyclase (sGC), sequence (Q02108 whole entry): as the sequence (Q02108 whole entry) above

Row | Emax at 10 µM [1, 4] [%] | Emax at 30 µM [1, 5] [%] | sGC Enzyme (fold increase at 30 μM) [2] | sGC Enzyme (fold increase at 30 μM with SNP) ([3]; with the addition of SNP) | Emax at 10 µM [1, 6] [%] | Emax at 30 µM [1, 7] [%] | sGC Enzyme (specific activity at 10 μM) [2] | sGC Enzyme (fold increase at 10 μM without SNP) [2] | sGC Enzyme (specific activity at 30 μM) [2] | sGC Enzyme (fold increase at 30 μM without SNP) [2] | sGC Enzyme (fold increase at 10 μM with SNP) ([3]; with 1 μM SNP) | sGC Enzyme (fold increase at 30 μM with SNP) ([3]; with 1 μM SNP) | Compound
1 | 60 to 80 | 40 to 60 | B (B = 2 to <5 fold increase) | C (C = 5 to <10 fold increase) |  |  |  |  |  |  |  |  | Nc1nc(-c2cc(-c3ccon3)n(Cc3ccccc3F)n2)ncc1-c1ccccn1 [Compound I-128]
2 | 0 to 10 | 0 to 10 | A (A = no increase to <2 fold increase) | B (B = 2 to <5 fold increase) |  |  |  |  |  |  |  |  | Fc1ccccc1Cn1nc(-c2ncccn2)cc1C1CC1 [Compound I-90]
3 | 40 to 60 | > 120 | B (B = 2 to <5 fold increase) | C (C = 5 to <10 fold increase) |  |  |  |  |  |  |  |  | Nc1nc(-c2cc(-c3ccon3)n(Cc3ccccc3F)n2)ncc1C1CC1 [Compound I-104]
4 | 0 to 10 | 0 to 10 | A (A = no increase to <2 fold increase) | A (A = no increase to <2 fold increase) |  |  |  |  |  |  |  |  | COC(=O)Nc1c(N)nc(-c2cc(-c3ccccn3)n(Cc3ccccc3F)n2)nc1N [Compound I-89]
5 | 20 to 40 | 20 to 40 | A (A = no increase to <2 fold increase) | B (B = 2 to <5 fold increase) |  |  |  |  |  |  |  |  | Nc1nc(-c2cc(-c3ccon3)n(Cc3ccccc3F)n2)ncc1-c1nccs1 [Compound I-108]
6 | 60 to 80 | 40 to 60 | B (B = 2 to <5 fold increase) | D (D = 10 to <30 fold increase) |  |  |  |  |  |  |  |  | CCOC(=O)c1cnc(-c2cc(-c3ccon3)n(Cc3ccccc3F)n2)nc1N [Compound I-131]
7 |  |  |  |  | 0 to 10 | 0 to 10 | C (C = 100 to <200) | B (B = 2 to <5 fold increase) | D (D = 200 to <500) | B (B = 2 to <5 fold increase) | B (B = 2 to <5 fold increase) | B (B = 2 to <5 fold increase) | Cc1ccc(-c2cc(-c3ccccn3)nn2Cc2ccccc2F)cc1 [Compound I-23]
8 |  |  |  |  | 0 to 10 | 0 to 10 | B (B = 50 to <100) | A (A = no increase to <2 fold increase) | C (C = 100 to <200) | B (B = 2 to <5 fold increase) | A (A = no increase to <2 fold increase) | A (A = no increase to <2 fold increase) | COc1ccc(-c2cc(-c3ncccn3)nn2Cc2ccccc2F)cc1 [Compound I-60]
9 |  |  |  |  | 0 to 10 | 0 to 10 | B (B = 50 to <100) | A (A = no increase to <2 fold increase) | B (B = 50 to <100) | A (A = no increase to <2 fold increase) | A (A = no increase to <2 fold increase) | A (A = no increase to <2 fold increase) | Fc1ccccc1Cn1nc(-c2ccccn2)c(Cl)c1-c1ccccn1 [Compound I-63]
10 | 0 to 10 | 0 to 10 | A (A = no increase to <2 fold increase) | A (A = no increase to <2 fold increase) |  |  |  |  |  |  |  |  | Cc1cccc(-c2cc(-c3ncccn3)nn2Cc2ccccc2F)n1 [Compound I-70, 2-(1-(2-fluorobenzyl)-5-(6-methylpyridin-2-yl)-1H-pyrazol-3-yl)pyrimidine]
11 | 40 to 60 | 40 to 60 | B (B = 2 to <5 fold increase) | D (D = 10 to <30 fold increase) |  |  |  |  |  |  |  |  | CC(C)(C)c1cnc(-c2cc(-c3ccon3)n(Cc3ccccc3F)n2)nc1N [Compound I-114]
12 |  |  |  |  | 10 to 20 | 10 to 20 | D (D = 200 to <500) | B (B = 2 to <5 fold increase) | D (D = 200 to <500) | B (B = 2 to <5 fold increase) | B (B = 2 to <5 fold increase) | C (C = 5 to <10 fold increase) | Fc1ccccc1Cn1nc(-c2ccccn2)cc1-c1cccs1 [Compound I-35]
13 | 0 to 10 | 0 to 10 | A (A = no increase to <2 fold increase) | A (A = no increase to <2 fold increase) |  |  |  |  |  |  |  |  | Cc1cccc(-c2cc(-c3ncccn3)n(Cc3ccccc3F)n2)n1 [Compound I-81, 2-(1-(2-fluorobenzyl)-3-(6-methylpyridin-2-yl)-1H-pyrazol-5-yl)pyrimidine]
14 | 10 to 20 | 20 to 40 | B (B = 2 to <5 fold increase) | C (C = 5 to <10 fold increase) |  |  |  |  |  |  |  |  | COC(=O)Nc1c(N)nc(-c2cc(-c3nccs3)n(Cc3ccccc3F)n2)nc1N [Compound I-93]
15 |  |  |  |  | 0 to 10 | 0 to 10 | C (C = 100 to <200) | A (A = no increase to <2 fold increase) | D (D = 200 to <500) | A (A = no increase to <2 fold increase) | A (A = no increase to <2 fold increase) | A (A = no increase to <2 fold increase) | Cc1nnc(-c2cc(-c3ccccn3)nn2Cc2ccccc2F)o1 [Compound I-46]
16 |  |  |  |  | 0 to 10 | 0 to 10 | B (B = 50 to <100) | A (A = no increase to <2 fold increase) | C (C = 100 to <200) | A (A = no increase to <2 fold increase) | A (A = no increase to <2 fold increase) | A (A = no increase to <2 fold increase) | Fc1ccccc1Cn1nc(-c2ncccn2)cc1-c1ncccn1 [Compound I-13]
17 | 0 to 10 | 0 to 10 | A (A = no increase to <2 fold increase) | B (B = 2 to <5 fold increase) |  |  |  |  |  |  |  |  | CC(=O)Nc1c(N)nc(-c2cc(-c3nccs3)n(Cc3ccccc3F)n2)nc1N [Compound I-94]
18 | 60 to 80 | 40 to 60 | B (B = 2 to <5 fold increase) | C (C = 5 to <10 fold increase) |  |  |  |  |  |  |  |  | Cc1cc(N)nc(-c2cc(-c3ccon3)n(Cc3ccccc3F)n2)n1 [Compound I-111]
19 |  |  |  |  | 0 to 10 | 0 to 10 | D (D = 200 to <500) | B (B = 2 to <5 fold increase) | E (E = 500 to <1000) | B (B = 2 to <5 fold increase) | B (B = 2 to <5 fold increase) | C (C = 5 to <10 fold increase) | Fc1ccccc1Cn1nc(-c2ccccn2)cc1C1CCCCC1 [Compound I-48]
20 | 20 to 40 | 20 to 40 | A (A = no increase to <2 fold increase) | B (B = 2 to <5 fold increase) |  |  |  |  |  |  |  |  | Nc1cc(N)nc(-c2cc(-c3ccon3)n(Cc3ccccc3F)n2)n1 [Compound I-103, 2-(1-(2-fluorobenzyl)-5-(isoxazol-3-yl)-1H-pyrazol-3-yl)pyrimidine-4,6-diamine]
21 | 20 to 40 | 20 to 40 | B (B = 2 to <5 fold increase) | C (C = 5 to <10 fold increase) |  |  |  |  |  |  |  |  | Nc1cc(-c2cccnc2)nc(-c2cc(-c3ccon3)n(Cc3ccccc3F)n2)n1 [Compound I-116]
